Experimental data as given in patent US6395526B1, “DNA polymerase” (Takara Shuzo Co., Ltd., priority 1995, dated 2002).
“Also recorded” adds a separate entry of the source.

Tests used:
Type in all cases: biochemical
[1] = system: gapped duplex plasmid (pUC118 vector); experiment: Accuracy of DNA synthesis reaction (white colony formation); conditions: 0.5 units DNA polymerase, 70° C. for 10 minutes
Procedure: The accuracy of DNA synthesis reaction by DNA polymerases was examined using a pUC118 vector (manufactured by Takara Shuzo Co., Ltd.), partially made single stranded (gapped duplex plasmid, as a template. The single stranded pUC118 vector was prepared by the method described in Molecular Cloning: A Laboratory Manual, 2nd ed., 4.44-4.48, published by Cold Spring Harbor Laboratory in 1989, edited by T. Maniatis et al., using a helper phage M13KO7 (manufactured by Takara Shuzo Co., Ltd.) with Escherichia coli MV1184 (manufactured by Takara Shuzo Co., Ltd.) as a host. The double stranded DNA was prepared by digesting the pUC118 vector with PvuII (manufactured by Takara Shuzo Co., Ltd.), subjecting the digested vector to agarose gel electrophoresis, and recovering a DNA fragment of about 2.8 kbp.
One microgram of the above single stranded DNA and 2 μg of the double stranded DNA were mixed to make 180 μl of a mixture with sterile distilled water, and the solution was then incubated at 70° C. for 10 minutes. Thereafter, twenty microliters of 20×SSC was added to the resulting mixture, and the mixture was further kept standing at 60° C. for 10 minutes. The DNA was recovered by subjecting to ethanol precipitation. […] The white or blue colonies formed on the plate were counted, and the formation rate of white colonies which were resulted from a DNA synthesis error was calculated.

M13-HT Primer = experiment: Primer extension reaction (autoradiogram, FIG. 6); conditions: for inhibition of primer extension by activated DNA as competitor substrate: activated DNA added in great excess
Procedure: The primer extension activity was further investigated extensively. The M13-HT Primer, previously labeled with [γ-^32P]-ATP (manufactured by Amersham) and T4 polynucleotide kinase (manufactured by Takara Shuzo Co., Ltd.) at the 5′-end, was used as a substrate. Ten microliters of a reaction mixture [20 mM Tris-HCl (pH 7.7), 15 mM MgCl2, 2 mM 2-mercaptoethanol, 270 μM each of dATP, dGTP, dCTP and dTTP] containing the above substrate in a final concentration of […] and various DNA polymerases in amounts providing 0.05 units of activity as assayed with the activated DNA as a substrate was reacted at 75° C. for 1, 2, 3, or 4 minutes. After termination of the reaction, 2 μl of a reaction stop solution (95% […], 20 mM EDTA, 0.05% bromophenol blue, 0.05% xylenecyanol) was added, subjected to thermal denaturation treatment at 95° C. for 3 minutes. Two microliters of the reaction mixture was then subjected to electrophoresis using polyacrylamide gel containing 8 M urea and subsequently subjected to a preparation of autoradiogram. Also, in order to examine the extension activity in the presence of the activated DNA as a competitor substrate, the activated DNA was added to the above reaction mixture to a final concentration of […], and subjected to a preparation of an autoradiogram by the same procedures as described above.
In the figure, Pol, Pfu, and Taq show the results for the DNA polymerase of the present invention, the Pfu DNA polymerase and the Taq DNA polymerase, respectively. In addition, 1, 2, 3, and 4 each indicates reaction time (min). In the figure, the representation “−” and “+” show the results obtained in the absence and in the presence, respectively, of the activated DNA. The lanes G, A, T, and C at the left end of the figure also show the results of electrophoresis of the reaction products obtained by a chain termination reaction by the dideoxy method using the same substrate as above, which were used to estimate the length of each extension product.

λ-DNA = experiment: PCR with λ-DNA as a template
Procedure: In order to compare the performance of the DNA polymerase of the present invention in PCR with that of the Taq DNA polymerase, PCR was carried out with λ-DNA as a template. The reaction mixture for the DNA polymerase of the present invention had the following composition: 10 mM Tris-HCl (pH 9.2), 3.5 mM MgCl2, 75 mM KCl, 400 μM each of dATP, dCTP, dGTP and dTTP, 0.01% bovine serum albumin (BSA), and 0.1% Triton X-100. The reaction solution for the Taq DNA polymerase had the following composition: 10 mM Tris-HCl (pH 8.3), 1.5 mM MgCl2, 50 mM KCl, and 400 μM each of dATP, dCTP, dGTP and dTTP. Fifty microliters of a reaction mixture containing 5.0 ng/50 μl λ-DNA (manufactured by Takara Shuzo Co., Ltd.), 10 pmol/50 μl each of primer λ1 and primer λ11, and 3.7 units/50 μl DNA polymerase was prepared. The base sequences of the primer λ1 and the primer λ11 are shown by SEQ ID NO:8 and SEQ ID NO:9 in Sequence Listing, respectively. After, a 30-cycle PCR was carried out with the above reaction mixture, wherein one cycle is defined at 98° C. for 10 seconds and at 68° C. for 10 seconds. Five microliters of the reaction mixture was subjected to agarose gel electrophoresis, and the amplified DNA fragment was confirmed by staining with ethidium bromide.
The experiment was then carried out by changing the primer to the primer λ1 and the primer λ10. The base sequence of the primer λ10 is shown by SEQ ID NO:10 in Sequence Listing. Twenty-five microliters of a reaction mixture having a similar composition to that shown above and containing 2.5 ng of λ-DNA, 10 pmol of the primer λ1 and the primer λ10, respectively, and 3.7 units of DNA polymerase was prepared. The reaction mixture was reacted in 5 cycles under the same reaction conditions as those described above, and 5 μl of the reaction mixture was subjected to agarose gel electrophoresis and stained with ethidium bromide.

[2] = primer λ1 and primer λ10, 5 cycles

| Substance | white colony formation rate (DNA synthesis error) [1] | inhibition of primer extension by activated DNA as competitor substrate (M13-HT Primer) | length of DNA fragment amplified by PCR (λ-DNA; [2]) | length of DNA fragment amplified by PCR (λ-DNA; primer λ1 and primer λ11, 30 cycles, enzyme used alone) | primer extension activity (M13-HT Primer; M13-HT Primer, 75° C., 1-4 min, compared with Pfu and Taq DNA polymerases) |
| --- | --- | --- | --- | --- | --- |
| Taq DNA Polymerase: Taq DNA polymerase derived from Thermus aquaticus (TaKaRa Taq, manufactured by Takara Shuzo Co., Ltd.) [reference compound] | 3.18% | markedly inhibited; also recorded: strongly inhibited | no specific amplification was observed | not found |  |
| DNA Polymerase of the Present Invention: complex of first (ORF3, SEQ ID NO:2) and second (ORF4, SEQ ID NO:4) DNA polymerase-constituting proteins from Pyrococcus furiosus | 1.61% | unlikely to be inhibited; also recorded: inhibited at a low level | about 15 kbp |  | superior primer extension activity |
